{"source": "patent US9902717B2", "about": "“Process of preparing potassium salt of Azilsartan medoxomil” (Unichem Laboratories Limited, priority 2015, dated 2018)", "test": "Stability study of polymorph U of Azilsartan Kamedoxomil at 5±3° C. for 6 months", "format": "physicochemical", "conditions": "for 01) Description White to off-white coloured powder / 02) Identification By HPLC: retention time of the major peak should correspond to Azilsartan Kamedoxomil Standard preparation / 03) Loss on drying (at 60° C. under vacuum for 3 hrs) NMT 1.0% w/w / 04) Related substances Method 1: By HPLC (by Area %) i) Azilsartan NMT 1.0% / 04) Related substances Method 1: By HPLC (by Area %) ii) Azilsartan ester NMT 0.3% / 04) Related substances Method 1: By HPLC (by Area %) iii) Impurity at RRT about 1.04 NMT 0.3% / 04) Related substances Method 1: By HPLC (by Area %) iv) Any individual unspecified impurity NMT 0.2% / 04) Related substances Method 1: By HPLC (by Area %) v) Total impurities NMT 2.5% / 04) Related substances Method 2: By GCHS i) Content of 2, 3 butanedione by GCHS: NMT 0.5% / 05) Assay by HPLC (On dried basis) NLT 97.5% w/w and NMT 102.0% w/w: stability testing at 5±3° C."}
{"smiles": "CCOc1nc2cccc(C(=O)OCc3oc(=O)oc3C)c2n1Cc1ccc(-c2ccccc2-c2noc(=O)[nH]2)cc1.[K]", "note": "[polymorph U, (5-methyl-2-oxo-1,3-dioxo-4-yl)methyl-2-ethoxy-1-1{[2′-(5-oxo-4,5-dihydro-1,2,4-oxadiazol-3-yl)biphenyl-4yl]methyl}-1H-benzimidazole-7-carboxylate monopotassium salt]", "values": [{"measurement": "change in XRPD pattern (polymorphic change)", "setting": "stability testing at 5±3° C. for 6 Months", "result": "no change"}, {"measurement": "01) Description White to off-white coloured powder", "setting": "6 M", "result": "White"}, {"measurement": "02) Identification By HPLC: retention time of the major peak should correspond to Azilsartan Kamedoxomil Standard preparation", "setting": "6 M", "result": "Complies"}, {"measurement": "03) Loss on drying (at 60° C. under vacuum for 3 hrs) NMT 1.0% w/w", "setting": "6 M", "result": 0.26, "unit": "% w/w"}, {"measurement": "04) Related substances Method 1: By HPLC (by Area %) i) Azilsartan NMT 1.0%", "setting": "6 M", "result": 0.18, "unit": "%"}, {"measurement": "04) Related substances Method 1: By HPLC (by Area %) ii) Azilsartan ester NMT 0.3%", "setting": "6 M", "result": 0.01, "unit": "%"}, {"measurement": "04) Related substances Method 1: By HPLC (by Area %) iii) Impurity at RRT about 1.04 NMT 0.3%", "setting": "6 M", "result": 0.08, "unit": "%"}, {"measurement": "04) Related substances Method 1: By HPLC (by Area %) iv) Any individual unspecified impurity NMT 0.2%", "setting": "6 M", "result": 0.03, "unit": "%"}, {"measurement": "04) Related substances Method 1: By HPLC (by Area %) v) Total impurities NMT 2.5%", "setting": "6 M", "result": 0.43, "unit": "%"}, {"measurement": "04) Related substances Method 2: By GCHS i) Content of 2, 3 butanedione by GCHS: NMT 0.5%", "setting": "6 M", "result": 0.13, "unit": "%"}, {"measurement": "05) Assay by HPLC (On dried basis) NLT 97.5% w/w and NMT 102.0% w/w", "setting": "6 M", "result": 100.3, "unit": "% w/w"}, {"measurement": "01) Description White to off-white coloured powder", "setting": "Initial", "result": "White"}, {"measurement": "02) Identification By HPLC: retention time of the major peak should correspond to Azilsartan Kamedoxomil Standard preparation", "setting": "Initial", "result": "Complies"}, {"measurement": "03) Loss on drying (at 60° C. under vacuum for 3 hrs) NMT 1.0% w/w", "setting": "Initial", "result": 0.44, "unit": "% w/w"}, {"measurement": "04) Related substances Method 1: By HPLC (by Area %) i) Azilsartan NMT 1.0%", "setting": "Initial", "result": 0.19, "unit": "%"}, {"measurement": "04) Related substances Method 1: By HPLC (by Area %) ii) Azilsartan ester NMT 0.3%", "setting": "Initial", "result": 0.01, "unit": "%"}, {"measurement": "04) Related substances Method 1: By HPLC (by Area %) iii) Impurity at RRT about 1.04 NMT 0.3%", "setting": "Initial", "result": 0.09, "unit": "%"}, {"measurement": "04) Related substances Method 1: By HPLC (by Area %) iv) Any individual unspecified impurity NMT 0.2%", "setting": "Initial", "result": 0.03, "unit": "%"}, {"measurement": "04) Related substances Method 1: By HPLC (by Area %) v) Total impurities NMT 2.5%", "setting": "Initial", "result": 0.56, "unit": "%"}, {"measurement": "04) Related substances Method 2: By GCHS i) Content of 2, 3 butanedione by GCHS: NMT 0.5%", "setting": "Initial", "result": 0.13, "unit": "% w/w"}, {"measurement": "05) Assay by HPLC (On dried basis) NLT 97.5% w/w and NMT 102.0% w/w", "setting": "Initial", "result": 101.7, "unit": "w/w"}, {"measurement": "Stability", "setting": "studied at 5±3° C.", "result": "stable"}]}
